Reference: patent publication US8735375B2, “Therapeutic compositions” (Leo Laboratories Limited, priority 2005, dated 2014)

Tests used:
[1] = Preliminary stability of I3A in receiver fluid 20% v/v ethanol/citrate buffer (pH 3.0); assay type: physicochemical; details: 37° C., after 18 h
Procedure: The receiver fluid employed to try and maintain sink conditions was 20% v/v ethanol/citrate buffer (pH 3.0) and this was incorporated into the Franz cell and stirred constantly with a magnetic stirrer. Preliminary stability studies were conducted on I3A in 20% v/v ethanol/citrate buffer (pH 3.0) at 37° C. over ca. 18 h. […] For the purpose of the Franz cell study this was considered acceptable.

[2] = Stability study of I3A in solvents at 4-8° C.; assay type: physicochemical; details: 14 days
Procedure: The stability of I3A in various solvents at 4-8° C. was investigated. A stock solution of 1.26 mg of I3A was weighed out and dissolved in 2 ml acetone. This stock solution was used to prepare the stability samples as follows:
Aliquots of 100 μl of stock solution were transferred to individual glass HPLC vials via a Hamilton syringe, with careful rinsing and drying of the syringe between each sample. The samples were dried down by air jet and then 0.5 ml of the appropriate test solvent system added. The solvent systems were tested in triplicate and are listed below:
Blank samples were also prepared in triplicate using 100 μl of acetone in place of the stock solution. The blank samples were then dried down and 0.5 ml acetone added to each vial. The vials were all crimped, sealed with Parafilm® and placed at 4-8° C. for the duration of the stability study. HPLC analysis was performed on the samples on Day 0, Day 1, Day 5 and Day 14 of the stability study. The samples were prepared for the HPLC assay as described below:
The stability samples were removed from 4-8° C. and left at ambient temperature for 30 mins. Aliquots of 100 μl were transferred to fresh glass HPLC vials using a Hamilton syringe, with careful, rinsing and drying of the syringe between each sample. To facilitate drying of the samples, 0.5 ml of acetone was added to each vial and then the samples were dried down by air jet. The samples were reconstituted with 1 ml of acetonitrile and analysed by HPLC using the chromatographic conditions specified above.

[3] = Preliminary in vitro diffusion study (Franz cell); assay type: in vitro ADME; details: human stratum corneum, at detectable levels
From the text: Once the stability of I3A in the excipients and penetration enhancers had been established, a preliminary in vitro diffusion experiment could be conducted to determine the permeation of stratum corneum by I3A from some simple formulations. The Franz diffusion cell is designed to mimic the physiological and anatomical conditions of skin in situ. It is an air/fluid phase static cell, which comprises a donor compartment, receptor compartment and a side arm sampling port (see FIG. 1). Surgically excised skin is positioned between the two halves with the stratum corneum facing the donor compartment to allow for drug application.
An initial in vitro diffusion experiment using a simple formulation of I3A in miglyol was performed. […] This formulation was used in later diffusion cell experiments as a negative control and also served to confirm the integrity of the stratum corneum, as if there is no diffusion of drug from this formulation, it can be assumed that the stratum corneum remains intact.
A formulation of I3A was prepared in phosphate buffer (pH 4.5) with β-cyclodextrins (Captisol®) added with a view to increasing the solubility and stability of I3A, and the flux of the drug. A second formulation in DMSO, a known penetration enhancer, was also prepared for comparative purposes, as well as a formulation in miglyol, which served as a negative control. […]

[4] = Kinetic solubility of I3A in 20% v/v ethanol/citrate buffer (pH 3.0); assay type: physicochemical; details: aqueous with cosolvent or surfactant or cyclodextrin, kinetic from dmso stock, 25° C.

Compound: C/C=C(/C)C(=O)O[C@H]1C(C)=C[C@]23C(=O)[C@H](C=C(CO)[C@@H](O)[C@]12O)[C@H]1[C@@H](C[C@H]3C)C1(C)C [Formulation I3A, ingenol-3-angelate]
- percentage peak area increase in isoform ‘a’ [1]: 0.26%
- stability (predominance of peak 'b') ([2]; 100% v/v acetone): stable
- stability (predominance of peak 'b') ([2]; 100% v/v acetonitrile): stable
- isomer formation ([2]; protic solvents (methanol, methanol/water, water)): formation of isomer ‘a’ and then isomer ‘c’ increases rapidly
- diffusion of I3A across the stratum corneum [3]: diffuses across the stratum corneum
- solubility kinetic [4]: 509.7 ± 3 µg/mL
